Reference: US11351209B2 (priority 2016, dated 2022)
“Also recorded” adds a separate entry of the source. Read-outs that look alike come from different tables or passages of the source.

Legend:
[1] = several trials; cited from earlier work
p110 delta protein = format: cell-based, BALB/c mice
[2] = test system: bone marrow derived macrophages; format: cell-based, BALB/c mice
CT26 flank tumours [3] = format: in vivo, BALB/c mice; conditions: 75 mg kg^−1 IC87114 three hours before intravenous 1×10^8 PFU VVL15, days 1, 3, 4 and 5, vs vehicle buffer
CT26 flank tumours [4] = assay: Efficacy study, oral IC87114 and intravenous VVL15, CT26 flank tumours; format: in vivo, BALB/c mice; conditions: IC87114 50 mg kg^−1 oral gavage three hours before intravenous VVL15 (Group D), vs all other groups
orthotopic 4T1 tumours = assay: Efficacy study, oral IC87114 and intravenous VVL15, orthotopic 4T1 tumours; format: in vivo, BALB/c mice; conditions: 4T1 orthotopic; IC87114 75 mg kg^−1 oral gavage three hours before intravenous VVL15 (Group D); vs all other groups
Vaccinia virus = conditions: in vivo
splenocytes = assay: Ex vivo interferon gamma ELISA on splenocytes; format: in vivo, BALB/c mice; conditions: CT26-bearing mice, IC87114 75 mg kg^−1 oral three hours before intravenous VVL15
Procedure: Interferon gamma assay on splenocytes derived from BALB/c mice bearing CT26 tumours. Fifteen mice were subcutaneously injected in their shaved right flank with 1×10^6 CT26 tumour cells. […] An interferon (IFN) gamma ELISA was performed. Anti-tumour immunity: splenocytes were stimulated with mitomycin treated CT26 cells, there was no statistically significant difference between any of the groups.
FIG. 2E illustrates an ex vivo interferon gamma assay performed on splenocytes derived from BALB/c mice bearing CT26 tumours. […] Thus pre-treatment with IC87114 appears to reduce in magnitude the subsequent development of an anti-viral response. This potentially could mean that aside from the effect IC87114 has on macrophages at an early time point it has a separate more lasting effect that leads to reduced anti-viral immunity and to the establishment of an effective infection of the tumours leading to the observed improvement in efficacy compared to virus alone.

[5] = format: in vivo; conditions: Rats, oral administration

Structure (SMILES)	toxicities in trials [1]	p110 delta protein expression (p110 delta protein)	viral attachment to wild-type macrophages compared with p110 delta knock in macrophages ([2]; wild-type macrophages pretreated 2 hours with IC87114, vs untreated wild-type (P<0.05 or P<0.01))	amount of VVL15 attached to macrophages (qPCR) ([2]; wildtype macrophages pretreated 2 hours with IC87114 vs untreated (P<0.001))	Vaccinia virus detected on macrophages (confocal microscopy) ([2]; wildtype macrophages pretreated 2 hours with IC87114 vs vehicle buffer)	tumour luminescence signal (CT26 flank tumours [3])	tumour luminescence signal (CT26 flank tumours [3]; listed as IC87714)	survival (Kaplan-Meier) (CT26 flank tumours [4])	survival (Kaplan-Meier) (orthotopic 4T1 tumours)	localisation of Vaccinia virus to the spleen (Vaccinia virus)	number of cells immunoreactive for Vaccinia coat protein per ×200 field in spleen (Vaccinia virus)	anti-tumour immunity: IFN gamma from splenocytes stimulated with mitomycin treated CT26 cells (splenocytes)	anti-viral immunity: IFN gamma from splenocytes stimulated with B8R protein (splenocytes; vs virus alone)	time to maximum plasma concentration [5] [h]
CC[C@H](Nc1ncnc2[nH]cnc12)c1nc2cccc(F)c2c(=O)n1-c1ccccc1 [Idelalisib, 5-Fluoro-3-phenyl-2-[(1S)-1-(7H-purin-6-ylamino)propyl]-4(3H)-quinazolinone]	minimal toxicities	–	–	–	–	–	–	–	–	–	–	–	–	–
Cc1ccccc1-n1c(Cn2cnc3c(N)ncnc32)nc2cccc(C)c2c1=O [IC87114, 2-[(6-amino-9H-purin-9-yl)methyl]-5-methyl-3-(2-methylphenyl)-4(3H)-quinazolinone]	–	does not appear to alter the amount of p110 delta protein detected	statistically significant from untreated wild-type macrophages	statistically significantly different from untreated macrophages; also recorded: significantly reduces VVL15 attachment to macrophages; also recorded: reduction in viral attachment to macrophages	less Vaccinia virus detected	significantly more signal	consistently higher tumour luminescence compared to control	improves survival; also recorded: survived significantly longer than all the other groups; also recorded: survival advantage	improves survival; also recorded: survived significantly longer than all other groups; also recorded: survival advantage	reduces the localisation of Vaccinia virus to the spleen	statistically significant difference between the groups	no effect on anti-tumour immunity	attenuates anti-viral immunity; also recorded: reduced levels of IFN gamma	4
